The structures appear in SMILES notation.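 Cultured in 96-well plates, cells were exposed to test compound for 48 hours across five concentrations. GI50: concentration for 50% inhibition of growth. TGI marks complete inhibition of growth.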 A value given as a limit tells only on which side of the number the result lay.

Common to all, as to assay: DTP human tumour cell line panel, 48 h
Assay [1] has as its system A549 NSCLC.
The test system of assay [2] is EKVX NSCLC.
In assay [3] the test system is HT29 colon.
Assay [4] relates to K-562 leukemia.
Assay [5] has as its system MALME-3M melanoma.
The subject of assay [6] is OVCAR-8 ovarian.
Assay [7] has as its system RPMI-8226 leukemia.
Assay [8] has as its system RXF 393 renal.
Assay [9] has as its system SF-295 CNS.
For assay [10], the system named is SK-MEL-2 melanoma.
Assay [11] concerns SK-MEL-28 melanoma.
In assay [12] the test system is SNB-19 CNS.
Assay [13] deals with SNB-75 CNS.
The subject of assay [14] is U251 CNS.
Assay [15] concerns UACC-257 melanoma.
Assay [16] deals with UACC-62 melanoma.
Assay [17] concerns ACHN renal.

In the case of `Nc1ccc(N=Nc2ccc(/C=C/c3ccc(N=Nc4ccc(N)c5ccc(S(=O)(=O)O)cc45)cc3S(=O)(=O)O)c(S(=O)(=O)O)c2)c2cc(S(=O)(=O)O)ccc12`, the TGI in [1], in assay [2], in [3], in [4], in assay [5] and in assay [6] was greater than 100 µM throughout. The TGI in assay [7], in assay [8], in assay [9], in [10], in [11] and in [12] was greater than 100 µM throughout. For the same molecule, the TGI in assay [13], in [14], in assay [15] and in assay [16] was greater than 100 µM in each case.

Take `O=c1c2cc(I)ccc2nc(-c2cccs2)n1Nc1ccccc1`: the TGI – broadly, the concentration giving total growth inhibition – is greater than 100 µM in assay [1]; greater than 100 µM in [17]; 58.4 µM in [2]; greater than 100 µM in [3]; 22.9 µM in [4]; greater than 100 µM in [6]. In addition, the TGI is greater than 100 µM in assay [7]; greater than 100 µM in [8]; 32.9 µM in [9]; 1.63 µM in [10]; greater than 100 µM in assay [11]; 76.6 µM in assay [12]. Moreover, the TGI in assay [14], in assay [15] and in assay [16] was greater than 100 µM throughout. In addition, the figures for the GI50 in [4] and in assay [15] were 0.301 µM and 32.3 µM, respectively.

Regarding `CC(SC1=CC(=O)c2c(Cl)ccc(O)c2C1=O)C(=O)O` (stereo unspecified), the TGI in assay [1] was 48.1 µM; in assay [2] it was 39.9 µM; in assay [4], greater than 100 µM; in assay [5], 37.7 µM; in assay [6], 36.3 µM; in assay [7], 76.4 µM. The TGI amounted to 33.3 µM in assay [9]; 33.6 µM in assay [10]; 32.9 µM in [11]; 31 µM in assay [13]; 40.2 µM in assay [14]; 30.3 µM in assay [15].

On to `CC1CN=C(NCc2ccccc2)S1` (stereo unspecified), for which the concentration for total growth inhibition (TGI) in assay [17], in assay [2], in [3], in [4], in assay [5] and in assay [7] was greater than 100 µM throughout. Also, the TGI in assay [8], in assay [10], in assay [11], in [12], in [13] and in assay [14] was greater than 100 µM each time. In addition, the TGI in assay [15] and in [16] was greater than 100 µM in each case.

In the case of `C1CSCC2(COC2)CS1`, the TGI in assay [1], in [17], in [3], in assay [4], in assay [6] and in [8] was greater than 100 µM in each case. For the same molecule, the TGI in [9], in assay [11], in assay [12], in [13], in assay [14] and in assay [15] was greater than 100 µM in each case.
